Experimental findings from patent publication US12559495B2 (Agency for Science, Technology and Research, priority 2013, dated 2026) are described below.

The subject of this assay is HEK293-STF3A cells. Description: STF3A assay (luciferase reporter). Format: cell-based. The following applies: Homo sapiens, 24 h, 1 day of treatment. How it is done: HEK293-STF cell line was modified from Human embryonic kidney cell line HEK293 transfected with the STF reporter. HEK293-STF3A cell line was further modified from HEK293-STF cell line to express Wnt3A. This cell line was used to identify compounds that regulate either early or late signalling components of the Wnt pathway. L-Wnt3A (ATCC, #CRL-2647) cell line was used for providing Wnt3A conditioned media. The three cell lines were grown in DMEM (Dulbecco's Modified Eagle Medium) with 10% FBS (fetal bovine serum) incubated in 37° C. with 5% CO2. 2×10^4 HEK293-STF3A cells in 75 μl culture media were seeded in each well of white 96 well plates (Greiner #655098) and incubated overnight at 37° C. 25 μl serially diluted compound was added to the cells to give final concentration of 50 μM to 1.5 nM. After 1 day of treatment, 100 μl of Steady-Glo® Luciferase Assay reagent (#E2520, Promega) was added to each well and incubated for 10 minutes at room temperature. Luminescence was measured using Tecan Safire2® plate reader.
For orientation: In a reporter assay the amount or activity of a reporter protein is the signal.
One may read the IC50 as the concentration that inhibits the measured activity by half. Read a low IC50 as inhibition by little substance. In turn, `Cn1c(=O)c2c(ncn2CC(=O)Nc2ccc(-c3cncs3)cc2)n(C)c1=O` [Compound 1, 2-(1,3-dimethyl-2,6-dioxo-2,3-dihydro-1H-purin-7(6H)-yl)-N-(4-(thiazol-5-yl)phenyl)acetamide] gave a half-inhibitory concentration (IC50) of less than 100 nM.
The result for `Cn1c(=O)c2c(ncn2CC(=O)Nc2ccc(-c3ccccc3)s2)n(C)c1=O` [Compound 2, 2-(1,3-dimethyl-2,6-dioxo-2,3-dihydro-1H-purin-7(6H)-yl)-N-(5-phenylthiophen-2-yl)acetamide] reads less than 100 nM; that for `Cn1c(=O)c2c(ncn2CC(=O)Nc2cc(-c3ccccc3)cs2)n(C)c1=O` [Compound 3, 2-(1,3-dimethyl-2,6-dioxo-2,3-dihydro-1H-purin-7(6H)-yl)-N-(4-phenylthiophen-2-yl)acetamide], less than 1000 nM.
The result for `Cn1c(=O)c2c(ncn2CC(=O)Nc2ccc(-n3ccnc3)cc2)n(C)c1=O` [Compound 4, N-(4-(1H-imidazol-1-yl)phenyl)-2-(1,3-dimethyl-2,6-dioxo-2,3-dihydro-1H-purin-7(6H)-yl)acetamide] reads less than 1000 nM.
The result for `Cn1c(=O)c2c(ncn2CC(=O)Nc2ccc(-c3cccnn3)cc2)n(C)c1=O` [Compound 6, 2-(1,3-dimethyl-2,6-dioxo-2,3-dihydro-1H-purin-7(6H)-yl)-N-(4-(pyridazin-3-yl)phenyl)acetamide] reads less than 1000 nM; that for `Cn1c(=O)c2c(ncn2CC(=O)Nc2ccc(-c3ncccn3)cc2)n(C)c1=O` [Compound 8, 2-(1,3-dimethyl-2,6-dioxo-2,3-dihydro-1H-purin-7(6H)-yl)-N-(4-(pyrimidin-2-yl)phenyl)acetamide], less than 5000 nM.
In the case of `Cn1c(=O)c2c(ncn2CC(=O)Nc2ccc(-c3ccccn3)cn2)n(C)c1=O` [Compound 9, N-(2,3′-bipyridin-6′-yl)-2-(1,3-dimethyl-2,6-dioxo-2,3-dihydro-1H-purin-7(6H)-yl)acetamide], the IC50 was less than 100 nM.
Compound `Cn1c(=O)c2c(ncn2CC(=O)Nc2ccc(-c3ccncc3)cc2)n(C)c1=O` [Compound 10, 2-(1,3-dimethyl-2,6-dioxo-2,3-dihydro-1H-purin-7(6H)-yl)-N-(4-(pyridin-4-yl)phenyl)acetamide] had a half-inhibitory concentration (IC50) of less than 1000 nM.
The result for `Cn1c(=O)c2c(ncn2CC(=O)Nc2ccc(-c3ccc(F)cc3)nn2)n(C)c1=O` [Compound 11, 2-(1,3-dimethyl-2,6-dioxo-2,3-dihydro-1H-purin-7(6H)-yl)-N-(6-(4-fluorophenyl)pyridazin-3-yl)acetamide] reads less than 100 nM.
With `Cn1c(=O)c2c(ncn2CC(=O)Nc2ccc(-c3ccncc3)nn2)n(C)c1=O` [Compound 12, 2-(1,3-dimethyl-2,6-dioxo-2,3-dihydro-1H-purin-7(6H)-yl)-N-(6-(pyridin-4-yl)pyridazin-3-yl)acetamide] the figure was less than 5000 nM; with `Cc1cc(-c2ccccc2)ccc1NC(=O)Cn1cnc2c1c(=O)n(C)c(=O)n2C` [Compound 13, 2-(1,3-dimethyl-2,6-dioxo-2,3-dihydro-1H-purin-7(6H)-yl)-N-(3-methylbiphenyl-4-yl)acetamide], more than 10000 nM; with `COc1cc(NC(=O)Cn2cnc3c2c(=O)n(C)c(=O)n3C)ccc1-c1ccccc1` [Compound 14, 2-(1,3-dimethyl-2,6-dioxo-2,3-dihydro-1H-purin-7(6H)-yl)-N-(2-methoxybiphenyl-4-yl)acetamide], less than 1000 nM.
The result for `C[C@H]1CN(C(=O)OC(C)(C)C)CCN1c1ccc(NC(=O)Cn2cnc3c2c(=O)n(C)c(=O)n3C)cc1` [Compound 15, (S)-tert-butyl 4-(4-(2-(1,3-dimethyl-2,6-dioxo-2,3-dihydro-1H-purin-7(6H)-yl)acetamido)phenyl)-3-methylpiperazine-1-carboxylate] reads less than 100 nM.
Take `C[C@@H]1CN(C(=O)OC(C)(C)C)CCN1c1ccc(NC(=O)Cn2cnc3c2c(=O)n(C)c(=O)n3C)cc1` [Compound 16, (R)-tert-butyl 4-(4-(2-(1,3-dimethyl-2,6-dioxo-2,3-dihydro-1H-purin-7(6H)-yl)acetamido)phenyl)-3-methylpiperazine-1-carboxylate]: the half-maximal inhibitory concentration (IC50) is less than 1000 nM.
For the compound `CN(C(=O)Cn1cnc2c1c(=O)n(C)c(=O)n2C)c1ccc(-c2ccsc2)cc1` [Compound 17, 2-(1,3-dimethyl-2,6-dioxo-2,3-dihydro-1H-purin-7(6H)-yl)-N-methyl-N-(4-(thiophen-3-yl)phenyl)acetamide], the half-maximal inhibitory concentration (IC50) is more than 10000 nM.
Compound `Cn1c(=O)c2c(ncn2CC(=O)Nc2ccc(-c3ccsc3)cc2)n(C)c1=O` [Compound 18, 2-(1,3-dimethyl-2,6-dioxo-2,3-dihydro-1H-purin-7(6H)-yl)-N-(4-(thiophen-3-yl)phenyl)acetamide] returned an IC50 of less than 100 nM.
The compound `Cn1c(=O)c2c(ncn2CC(=O)Nc2ccc(-c3ccccc3)cn2)n(C)c1=O` [Compound 19, 2-(1,3-dimethyl-2,6-dioxo-2,3-dihydro-1H-purin-7(6H)-yl)-N-(5-phenylpyridin-2-yl)acetamide] came in with an IC50 of less than 100 nM.
With `Cn1c(=O)c2c(ncn2CC(=O)Nc2ccc(N3CCN(C(=O)OC(C)(C)C)CC3)cn2)n(C)c1=O` [Compound 20] the figure was less than 100 nM; with `Cn1c(=O)c2c(ncn2CC(=O)Nc2ccc(N3CCN(Cc4cccc(Cl)c4)CC3)cn2)n(C)c1=O` [Compound 21, N-(5-(4-(3-chlorobenzyl)piperazin-1-yl)pyridin-2-yl)-2-(1,3-dimethyl-2,6-dioxo-2,3-dihydro-1H-purin-7(6H)-yl)acetamide], less than 100 nM; with `Cn1c(=O)c2c(ncn2CC(=O)Nc2ccc(N3CCN(C(=O)OC(C)(C)C)CC3)cc2)n(C)c1=O` [Compound 22, tert-butyl 4-(4-(2-(1,3-dimethyl-2,6-dioxo-2,3-dihydro-1H-purin-7(6H)-yl)acetamido)phenyl)piperazine-1-carboxylate], less than 100 nM.
With `CC(C(=O)Nc1ccc(N2CCN(C(=O)OC(C)(C)C)CC2)cc1)n1cnc2c1c(=O)n(C)c(=O)n2C` (stereo not drawn) [Compound 23, tert-butyl 4-(4-(2-(1,3-dimethyl-2,6-dioxo-2,3-dihydro-1H-purin-7(6H)-yl)propanamido)phenyl)piperazine-1-carboxylate] the figure was less than 100 nM; with `Cn1c(=O)c2c(ncn2CC(=O)Nc2ccc(-c3ncco3)cc2)n(C)c1=O` [Compound 24, 2-(1,3-dimethyl-2,6-dioxo-2,3-dihydro-1H-purin-7(6H)-yl)-N-(4-(oxazol-2-yl)phenyl)acetamide], less than 1000 nM.
With `Cn1c(=O)c2c(ncn2CC(=O)Nc2ccc(-c3ccccn3)cc2)n(C)c1=O` [Compound 25, 2-(1,3-dimethyl-2,6-dioxo-2,3-dihydro-1H-purin-7(6H)-yl)-N-(4-(pyridin-2-yl)phenyl)acetamide] the figure was less than 100 nM; with `Cn1c(=O)c2c(ncn2CC(=O)Nc2ccc(-c3cccnc3)cc2)n(C)c1=O` [Compound 26, 2-(1,3-dimethyl-2,6-dioxo-2,3-dihydro-1H-purin-7(6H)-yl)-N-(4-(pyridin-3-yl)phenyl)acetamide], less than 100 nM.
Consider `COc1ccccc1-c1ccc(NC(=O)Cn2cnc3c2c(=O)n(C)c(=O)n3C)cc1` [Compound 27, 2-(1,3-dimethyl-2,6-dioxo-2,3-dihydro-1H-purin-7(6H)-yl)-N-(2′-methoxybiphenyl-4-yl)acetamide], for which the IC50 is more than 10000 nM.
The result for `Cc1ccccc1-c1ccc(NC(=O)Cn2cnc3c2c(=O)n(C)c(=O)n3C)cc1` [Compound 28, 2-(1,3-dimethyl-2,6-dioxo-2,3-dihydro-1H-purin-7(6H)-yl)-N-(2′-methylbiphenyl-4-yl)acetamide] reads more than 10000 nM; that for `Cc1cccc(-c2ccc(NC(=O)Cn3cnc4c3c(=O)n(C)c(=O)n4C)cc2)c1` [Compound 29, 2-(1,3-dimethyl-2,6-dioxo-2,3-dihydro-1H-purin-7(6H)-yl)-N-(3′-methylbiphenyl-4-yl)acetamide], less than 100 nM; that for `Cc1ccc(-c2ccc(NC(=O)Cn3cnc4c3c(=O)n(C)c(=O)n4C)cc2)cc1` [Compound 30, 2-(1,3-dimethyl-2,6-dioxo-2,3-dihydro-1H-purin-7(6H)-yl)-N-(4′-methylbiphenyl-4-yl)acetamide], less than 100 nM.
With `Cn1c(=O)c2c(ncn2CC(=O)Nc2ccc(-c3ccc(OC(F)(F)F)cc3)cc2)n(C)c1=O` [Compound 31, 2-(1,3-dimethyl-2,6-dioxo-2,3-dihydro-1H-purin-7(6H)-yl)-N-(4′-(trifluoromethoxy)biphenyl-4-yl)acetamide] the figure was less than 5000 nM; with `COc1cccc(-c2ccc(NC(=O)Cn3cnc4c3c(=O)n(C)c(=O)n4C)cc2)c1` [Compound 32, 2-(1,3-dimethyl-2,6-dioxo-2,3-dihydro-1H-purin-7(6H)-yl)-N-(3′-methoxybiphenyl-4-yl)acetamide], less than 100 nM; with `Cc1nc(-c2ccc(NC(=O)Cn3cnc4c3c(=O)n(C)c(=O)n4C)cc2)cs1` [Compound 33, 2-(1,3-dimethyl-2,6-dioxo-2,3-dihydro-1H-purin-7(6H)-yl)-N-(4-(2-methylthiazol-4-yl)phenyl)acetamide], less than 100 nM.
As to `Cn1c(=O)c2c(ncn2CC(=O)Nc2ccc(-c3nccs3)cc2)n(C)c1=O` [Compound 34, 2-(1,3-dimethyl-2,6-dioxo-2,3-dihydro-1H-purin-7(6H)-yl)-N-(4-(thiazol-2-yl)phenyl)acetamide], the IC50 is less than 100 nM.
With `Cn1c(=O)c2c(ncn2CC(=O)Nc2ccc(-c3ccccc3)nc2)n(C)c1=O` [Compound 35, 2-(1,3-dimethyl-2,6-dioxo-2,3-dihydro-1H-purin-7(6H)-yl)-N-(6-phenylpyridin-3-yl)acetamide] the figure was less than 100 nM.
